Experimental data: ChEMBL document CHEMBL1201862, “PubChem BioAssay data set” (2004)
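Interpolation was linear, between the two tested concentrations surrounding the appropriate level; five concentrations were tested over 48 hours in 96-well plates. GI50 marks 50% less growth.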 Calls of active or inactive are those of the source. No stated cut-off is given here; in the data, active = GI50 up to about 1.1 µM and inactive = higher.

Columns and labels:
Assay in all cases: DTP human tumour cell line panel, 48 h
CCRF-CEM = tested on: CCRF-CEM
DLD-1 = tested on: DLD-1
HCT-15 = tested on: HCT-15
HOP-62 = tested on: HOP-62
HOP-92 = tested on: HOP-92
HT-29 = tested on: HT-29
K562 = tested on: K562
KM12 = tested on: KM12
OVCAR-3 = tested on: OVCAR-3
SF-268 = tested on: SF-268
SF-295 = tested on: SF-295
SF-539 = tested on: SF-539
SNB-19 = tested on: SNB-19
SW-620 = tested on: SW-620
TK-10 = tested on: TK-10
U-251 = tested on: U-251
UACC-257 = tested on: UACC-257
A498 = tested on: A498
MDA-MB-231 = tested on: MDA-MB-231
MDA-MB-435 = tested on: MDA-MB-435

Row | SMILES | GI50 (CCRF-CEM) | GI50 (DLD-1) | GI50 (HCT-15) | GI50 (HOP-62) | GI50 (HOP-92) | GI50 (HT-29) | GI50 (K562) | GI50 (KM12) | GI50 (OVCAR-3) | GI50 (SF-268) | GI50 (SF-295) | GI50 (SF-539) | GI50 (SNB-19) | GI50 (SW-620) | GI50 (TK-10) | GI50 (U-251) | GI50 (UACC-257) | GI50 (A498) | GI50 (MDA-MB-231) | GI50 (MDA-MB-435)
1 | C=C1c2ccccc2N(S(=O)(=O)c2ccc(C)cc2)C12CCCCC2 | 25.2 µM (inactive) | > 100 µM (inactive) | > 100 µM | > 100 µM (inactive) | 4.27 µM (inactive) | 52.4 µM (inactive) | 29 µM (inactive) | 38.5 µM (inactive) | 77.6 µM (inactive) | 63 µM (inactive) | 74.5 µM (inactive) | > 100 µM (inactive) | > 100 µM (inactive) | 59.3 µM (inactive) | > 100 µM (inactive) | 94.6 µM (inactive) | 36 µM (inactive) |  |  | 
2 | COc1cc2c3c(c1OC)-c1ccccc1C(C(O)c1ccccc1)C3N(C)CC2 (centres undefined) | 26.2 µM (inactive) | 26.4 µM (inactive) | 25.4 µM | 24.3 µM (inactive) | 53.3 µM (inactive) | 24.7 µM (inactive) | 25.9 µM (inactive) | 25.8 µM (inactive) | 34.8 µM (inactive) | 31.7 µM (inactive) | 44.5 µM (inactive) | 21.4 µM (inactive) | 88.5 µM (inactive) | 34.3 µM (inactive) | 33.9 µM (inactive) | 30 µM (inactive) | 20.5 µM (inactive) |  |  | 
3 | O=C(O)COc1ccc(O)c2c1C(=O)CCCC2=O | > 100 µM (inactive) | > 100 µM (inactive) | > 100 µM | > 100 µM (inactive) |  | > 100 µM (inactive) | > 100 µM (inactive) | > 100 µM (inactive) | > 100 µM (inactive) | > 100 µM (inactive) | > 100 µM (inactive) | > 100 µM (inactive) | > 100 µM (inactive) | > 100 µM (inactive) | > 100 µM (inactive) | > 100 µM (inactive) | > 100 µM (inactive) | > 100 µM (inactive) |  | 
4 | CCCCCCCCOCC(O)COC(C)C (centres undefined) | 20.9 µM (inactive) | 89.7 µM (inactive) | 27.4 µM | 91.8 µM (inactive) | 13.7 µM (inactive) | 50.7 µM (inactive) | 28.1 µM (inactive) |  | 16.2 µM (inactive) | 39.1 µM (inactive) | 58.7 µM (inactive) |  | 74.6 µM (inactive) | 59.8 µM (inactive) | > 100 µM (inactive) | 89.3 µM (inactive) | 27.9 µM (inactive) | 68.9 µM (inactive) |  | 
5 | CCCCCCCC/C=C\CCCCCCCC(=O)NCCN(CCN)C(=O)CCCCCCC/C=C\CCCCCCCC | > 100 µM (inactive) | > 100 µM (inactive) | > 100 µM | > 100 µM (inactive) | > 100 µM (inactive) | > 100 µM (inactive) | > 100 µM (inactive) |  | 78.7 µM (inactive) | > 100 µM (inactive) | > 100 µM (inactive) |  | > 100 µM (inactive) | > 100 µM (inactive) | > 100 µM (inactive) | > 100 µM (inactive) | > 100 µM (inactive) | > 100 µM (inactive) |  | 
6 | C=CCOC1CC(n2cnc3c(N)ncnc32)OC1CO (centres undefined) | > 100 µM (inactive) | > 100 µM (inactive) | > 100 µM | > 100 µM (inactive) | > 100 µM (inactive) | > 100 µM (inactive) | > 100 µM (inactive) | > 100 µM (inactive) | > 100 µM (inactive) | > 100 µM (inactive) | > 100 µM (inactive) | > 100 µM (inactive) | > 100 µM (inactive) | > 100 µM (inactive) | > 100 µM (inactive) | > 100 µM (inactive) | > 100 µM (inactive) |  |  | 
7 | COc1c2c(c3c(c1C1OC(C)[C@@H](C)O1)CC(C)(C)O3)C(=O)c1ccccc1C2=O (some centres undefined) | 20.8 µM (inactive) | 36.1 µM (inactive) | 43.1 µM | > 100 µM (inactive) | 16.9 µM (inactive) | 31.6 µM (inactive) | 25.4 µM (inactive) | 45.7 µM (inactive) | 38.2 µM (inactive) | 54.2 µM (inactive) | 65.2 µM (inactive) | > 100 µM (inactive) | > 100 µM (inactive) | 23.9 µM (inactive) | > 100 µM (inactive) | 36.6 µM (inactive) | > 100 µM (inactive) |  |  | 
8 | CC(=O)O/N=C/c1cc2c(cc1Br)OCO2 | > 349 µM (inactive) | > 349 µM (inactive) | > 349 µM | > 349 µM (inactive) | > 349 µM (inactive) | > 349 µM (inactive) | > 349 µM (inactive) | > 349 µM (inactive) | 137 µM (inactive) | > 349 µM (inactive) | 291 µM (inactive) |  |  | > 349 µM (inactive) | > 349 µM (inactive) | > 34.9 µM (inactive) | > 349 µM (inactive) |  |  | 
9 | O=C(O)C(Cl)(c1ccccc1)c1ccccc1 | > 100 µM (inactive) |  | > 100 µM | > 100 µM (inactive) | > 100 µM (inactive) | > 100 µM (inactive) | 83 µM (inactive) | > 100 µM (inactive) | > 100 µM (inactive) | > 100 µM (inactive) | > 100 µM (inactive) | > 100 µM (inactive) | > 100 µM (inactive) | > 100 µM (inactive) | > 100 µM (inactive) | > 100 µM (inactive) | > 100 µM (inactive) | > 100 µM (inactive) | > 100 µM (inactive) | > 100 µM (inactive)
10 | Cc1cn(C2CC(/[N+]([O-])=N\Nc3ccc([N+](=O)[O-])cc3)C(CO)O2)c(=O)[nH]c1=O (centres undefined) | > 100 µM (inactive) |  | > 100 µM | > 100 µM (inactive) | > 100 µM (inactive) | > 100 µM (inactive) | > 100 µM (inactive) | > 100 µM (inactive) | > 100 µM (inactive) | > 100 µM (inactive) | > 100 µM (inactive) | > 100 µM (inactive) | > 100 µM (inactive) | > 100 µM (inactive) | > 100 µM (inactive) | > 100 µM (inactive) | > 100 µM (inactive) | > 100 µM (inactive) | 73.3 µM (inactive) | > 100 µM (inactive)
11 | COC(=O)C1=C(C)NC(C)=C(C(=O)OC)C1c1ccccc1NO | 68.5 µM (inactive) |  | > 100 µM | > 100 µM (inactive) | > 100 µM (inactive) | > 100 µM (inactive) | 20.1 µM (inactive) | > 100 µM (inactive) | > 100 µM (inactive) | > 100 µM (inactive) | > 100 µM (inactive) | > 100 µM (inactive) | > 100 µM (inactive) | 68.1 µM (inactive) | > 100 µM (inactive) | > 100 µM (inactive) | > 100 µM (inactive) | > 100 µM (inactive) | 65.6 µM (inactive) | 47.2 µM (inactive)
12 | COC(OC)C1(c2ccccc2)Oc2ccccc2C1=O (centres undefined) | > 100 µM (inactive) |  | > 100 µM | > 100 µM (inactive) | > 100 µM (inactive) | > 100 µM (inactive) | 65.2 µM (inactive) | > 100 µM (inactive) | > 100 µM (inactive) | > 100 µM (inactive) | 90.2 µM (inactive) | > 100 µM (inactive) | > 100 µM (inactive) | > 100 µM (inactive) | > 100 µM (inactive) | > 100 µM (inactive) | > 100 µM (inactive) | > 100 µM (inactive) | > 100 µM (inactive) | > 100 µM (inactive)
13 | COc1cccc2cc(C(=O)NC34CC5CC(CC(C5)C3)C4)c(=N)oc12 | 8.04 µM (inactive) |  | 49.8 µM | 53.1 µM (inactive) | > 36.2 µM (inactive) | 47.1 µM (inactive) | 50.9 µM (inactive) | 54.6 µM (inactive) | 24.6 µM (inactive) | 78.9 µM (inactive) | 68.5 µM (inactive) | > 34.3 µM (inactive) | 73.8 µM (inactive) | 49.9 µM (inactive) | 64 µM (inactive) | 55.3 µM (inactive) | > 89.3 µM (inactive) | > 100 µM (inactive) | > 100 µM (inactive) | > 82.4 µM (inactive)
14 | CCOC(=O)c1c(Nc2ccccc2)sc2cccnc12 | 10.5 µM (inactive) |  | 21.7 µM | 35.5 µM (inactive) | 1.9 µM (inactive) | 5.48 µM (inactive) | 8.36 µM (inactive) | 18.9 µM (inactive) | 17.4 µM (inactive) | 29.9 µM (inactive) | 21.4 µM (inactive) | 1.43 µM (inactive) | 7.66 µM (inactive) | 24 µM (inactive) | 11.2 µM (inactive) | 2.43 µM (inactive) | 5.35 µM (inactive) | 3.56 µM (inactive) | 6.56 µM (inactive) | 22.6 µM (inactive)
15 | C/C(=N\NC(=S)N1CCN(C)CC1)c1nc2cccnc2[nH]1 | > 100 µM (inactive) |  | > 100 µM | > 100 µM (inactive) | > 100 µM (inactive) | > 100 µM (inactive) | 92.3 µM (inactive) | > 100 µM (inactive) | > 100 µM (inactive) | > 100 µM (inactive) | > 100 µM (inactive) | > 100 µM (inactive) | > 100 µM (inactive) | > 100 µM (inactive) | 54.7 µM (inactive) | > 100 µM (inactive) | > 100 µM (inactive) | > 100 µM (inactive) | > 100 µM (inactive) | > 100 µM (inactive)
16 | CC(C)(C)c1ccc(OCCOc2ccc(C(C)(C)C)cc2N)c(N)c1 | 22.9 µM (inactive) |  | 37.5 µM | > 100 µM (inactive) | 17.4 µM (inactive) | 10 µM (inactive) | > 100 µM (inactive) | > 100 µM (inactive) | > 100 µM (inactive) | > 100 µM (inactive) | > 100 µM (inactive) | > 100 µM (inactive) | > 100 µM (inactive) | > 100 µM (inactive) | 69.3 µM (inactive) | 17.1 µM (inactive) | > 100 µM (inactive) | 18.3 µM (inactive) | 17.5 µM (inactive) | > 100 µM (inactive)
